Test results published in ChEMBL document CHEMBL5154849, “Overcoming undesirable hERG affinity by incorporating fluorine atoms: A case of MAO-B inhibitors derived from 1 H-pyrrolo-[3,2-c]quinolines” (Eur J Med Chem, 2022).

Experiment: in vitro
Details: rat, liver microsomes

COc1cccc(Cn2ccc3c(N4CCC(F)(F)CC4)nc4ccccc4c32)c1
CLint scaled at 10 µM: 43 mL/min/kg
